Tests used:
Format in all cases: cell-based
[1] = molecular target: T1, human sphingosine-1-phosphate receptor 1 (S1P1) (Homo sapiens, UniProt P21453); test: Inhibition of cAMP production (HTRF cAMP HiRange), S1P1 CHO-K1 cells; conditions: for Emax: CHO-K1, efficacy normalized to maximum efficacy of fingolimod, read-out: hS1P1 CAMP SPAN; for EC50: read-out: hS1P1 CAMP pEC50 (converted)
In short: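 Intracellular cAMP changes read by TR-FRET (HTRF HiRange, 1 h room temperature) after 30 min compound exposure at 37 °C. Cells: overnight-plated CHO-K1 stably expressing tagged human S1P1 with EA-β-arrestin2. Responses normalized to fingolimod.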
Target sequence in this assay (P21453 whole entry): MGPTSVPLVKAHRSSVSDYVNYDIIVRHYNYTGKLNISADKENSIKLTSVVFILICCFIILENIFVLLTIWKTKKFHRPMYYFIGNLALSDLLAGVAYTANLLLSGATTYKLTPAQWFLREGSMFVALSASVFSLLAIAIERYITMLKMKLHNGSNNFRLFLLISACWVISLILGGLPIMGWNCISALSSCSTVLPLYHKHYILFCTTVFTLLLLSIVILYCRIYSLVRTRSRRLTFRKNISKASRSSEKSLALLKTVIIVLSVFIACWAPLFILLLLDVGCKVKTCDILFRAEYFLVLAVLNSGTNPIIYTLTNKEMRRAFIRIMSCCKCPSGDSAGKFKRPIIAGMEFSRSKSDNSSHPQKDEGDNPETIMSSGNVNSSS

[2] = molecular target: T1, human sphingosine-1-phosphate receptor 1 (S1P1); test: β-Arrestin2 recruitment assay (PathHunter), S1P1 CHO-K1 cells; conditions: for Emax: efficacy normalized to maximum efficacy of fingolimod, read-out: hS1P1 B-arrestin2 SPAN; for EC50: read-out: hS1P1 B-arrestin2 pEC50 (converted)
In short: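 Agonist-driven β-arrestin2 recruitment measured by β-galactosidase complementation after 60 min compound exposure at 37 °C and 1 h detection at room temperature. Cells: stable CHO-K1 line expressing tagged human S1P1 with EA-β-arrestin2, plated the night before. Data expressed relative to fingolimod.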
Target sequence in this assay (P21453 whole entry): as above
Target sequence in this assay (P32121 whole entry partner): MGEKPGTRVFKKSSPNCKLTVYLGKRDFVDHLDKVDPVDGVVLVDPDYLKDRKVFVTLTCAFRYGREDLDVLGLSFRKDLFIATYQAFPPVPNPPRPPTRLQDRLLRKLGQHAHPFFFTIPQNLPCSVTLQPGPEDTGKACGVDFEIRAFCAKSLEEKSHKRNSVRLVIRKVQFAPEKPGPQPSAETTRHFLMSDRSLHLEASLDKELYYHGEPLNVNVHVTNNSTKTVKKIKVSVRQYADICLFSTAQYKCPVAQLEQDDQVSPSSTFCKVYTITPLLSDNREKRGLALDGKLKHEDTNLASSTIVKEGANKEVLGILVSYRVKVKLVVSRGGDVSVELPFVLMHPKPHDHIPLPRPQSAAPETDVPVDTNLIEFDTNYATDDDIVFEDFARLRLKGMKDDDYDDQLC

[3] = molecular target: human sphingosine-1-phosphate receptor 2 (S1P2) (Homo sapiens, UniProt O95136); test: Selectivity: inositol monophosphate production (IP-one), S1P2 CHO-K1 cells; conditions: for Emax: CHO-K1, efficacy normalized to maximal efficacy of CYM5520, read-out: hS1P2 IP-one SPAN; for EC50: inositol monophosphate accumulation, read-out: hS1P2 IP-one pEC50 (converted)
human sphingosine-1-phosphate receptor 2 (S1P2), sequence (O95136 whole entry): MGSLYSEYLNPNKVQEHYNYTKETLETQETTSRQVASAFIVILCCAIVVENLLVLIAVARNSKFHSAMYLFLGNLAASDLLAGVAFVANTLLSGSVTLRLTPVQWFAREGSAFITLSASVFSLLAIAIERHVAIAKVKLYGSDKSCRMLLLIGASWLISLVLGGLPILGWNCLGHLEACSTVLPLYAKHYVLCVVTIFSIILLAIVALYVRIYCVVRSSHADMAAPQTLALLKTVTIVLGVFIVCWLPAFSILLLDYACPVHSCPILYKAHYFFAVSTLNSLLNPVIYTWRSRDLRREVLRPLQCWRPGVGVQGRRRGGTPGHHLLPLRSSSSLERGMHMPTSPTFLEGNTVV
Protocol: (§1) Cell Culturing and Assay Plating Cell lines were cultured in AssayComplete™ Media 6 (DiscoverX Corporation, Cat #: 920018GF2) at 37° C. and 5% CO2 in a humidified CO2 and temperature-controlled incubator. To begin assay plating, cells were washed with Dulbecco's phosphate buffered saline (CellGro, Cat #: 21-031-CV) and lifted from the culturing flask by incubation (37° C., 5 min) with CellStripper (Cellgro, Cat #: 25-056-CI). […] Plated cells were incubated overnight at 37° C. and 5% CO2 in a humidified CO2 and temperature-controlled incubator. Detecting Inhibition of cAMP Production
S1P2 Agonist-promoted G-protein responses were determined by measuring changes in intracellular inositol monophosphate using the IP-one TB kit (CisBio, Cat #: 62IPAPEJ) based on time-resolved fluorescence resonance energy transfer (TR-FRET) technology. AssayComplete™ Cell Plating 2 Reagent was removed and replaced with 1× IP-one stimulation buffer (as per manufacturer's instructions) along with test or control compounds at the desired concentrations.
Following a 60-minute incubation at 37° C. and 5% CO2 in a humidified CO2 and temperature-controlled incubator, the components of the IP-one TB kit were added as per the manufacturer's instructions. After an hour incubation at room temperature, plates were analyzed by a BMG PheraStar microplate reader.
(§2) These values are normalized to fimgolimod, a known agonist of the sphingosine-1-phosphate 3 and 5 receptor or CYM5520, a known agonist of the sphingosine-1-phosphate 2 receptor. The tables also include potency values (pEC50) for modulating discrete receptor-mediated activities (inhibition of cAMP production or inositol monophosphate accumulation).

[4] = molecular target: human sphingosine-1-phosphate receptor 3 (S1P3) (Homo sapiens, UniProt Q99500); test: Selectivity: inhibition of cAMP production (HTRF), S1P3 CHO-K1 cells; conditions: for Emax: CHO-K1, efficacy normalized to maximal efficacy of fimgolimod, read-out: hS1P3 cAMP SPAN; for EC50: inhibition of cAMP production, read-out: hS1P3 cAMP pEC50 (converted)
human sphingosine-1-phosphate receptor 3 (S1P3), sequence (Q99500 whole entry): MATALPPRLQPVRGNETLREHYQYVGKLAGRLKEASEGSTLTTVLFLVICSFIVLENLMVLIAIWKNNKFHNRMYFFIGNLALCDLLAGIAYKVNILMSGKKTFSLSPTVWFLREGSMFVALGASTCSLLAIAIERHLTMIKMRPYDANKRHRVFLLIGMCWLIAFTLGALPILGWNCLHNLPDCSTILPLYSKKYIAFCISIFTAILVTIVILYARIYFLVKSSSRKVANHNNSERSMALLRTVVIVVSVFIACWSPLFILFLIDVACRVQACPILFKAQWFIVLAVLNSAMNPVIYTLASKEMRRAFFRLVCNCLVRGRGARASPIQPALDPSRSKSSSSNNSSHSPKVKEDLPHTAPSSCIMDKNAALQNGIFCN
Protocol: as §1
(§3) S1P3 and S1P5 Agonist-promoted G-protein responses were determined by measuring changes in intracellular cAMP using the HTRF® cAMP HiRange kit (CisBio, Cat #: 62AM6PEJ) based on time-resolved fluorescence resonance energy transfer (TR-FRET) technology. […] Following a 30-minute room temperature incubation the components of the cAMP HiRange kit were added as per the manufacturer's instructions. After an hour incubation at room temperature, plates were analyzed by a BMG PheraStar microplate reader.
as §2

[5] = molecular target: sphingosine-1-phosphate receptor 5 (S1P5) (Homo sapiens, UniProt Q9H228); test: Selectivity: inhibition of cAMP production (HTRF), S1P5 CHO-K1 cells; conditions: for Emax: CHO-K1, efficacy normalized to maximal efficacy of fimgolimod, read-out: hS1P5 cAMP SPAN; for EC50: inhibition of cAMP production, read-out: hS1P5 cAMP pEC50 (converted)
sphingosine-1-phosphate receptor 5 (S1P5), sequence (Q9H228 whole entry): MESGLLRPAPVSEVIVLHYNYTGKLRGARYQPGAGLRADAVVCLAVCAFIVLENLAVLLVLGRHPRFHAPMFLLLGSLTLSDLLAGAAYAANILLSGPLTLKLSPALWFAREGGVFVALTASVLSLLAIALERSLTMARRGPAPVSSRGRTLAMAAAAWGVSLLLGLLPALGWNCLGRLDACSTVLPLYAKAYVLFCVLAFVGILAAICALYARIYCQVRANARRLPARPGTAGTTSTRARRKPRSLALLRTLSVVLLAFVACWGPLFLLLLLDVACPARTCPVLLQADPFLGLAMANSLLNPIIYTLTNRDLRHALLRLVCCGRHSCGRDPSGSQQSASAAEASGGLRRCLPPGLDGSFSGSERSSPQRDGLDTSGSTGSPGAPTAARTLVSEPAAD
Protocol: as §1, §3, §2

[6] = inhibition of cAMP production, potency
[7] = CHO-K1, β-arrestin2 recruitment
[8] = β-arrestin2 recruitment, potency
[9] = inhibition of cAMP production, S1P1

| SMILES | Emax ([1]; inhibition of cAMP production) [%] | EC50 [1, 6] [µM] | Emax [2, 7] [%] | EC50 [2, 8] [µM] | Emax [3] [%] | EC50 [3] [µM] | Emax [4] [%] | EC50 [4] [µM] | Emax [5] [%] | EC50 [5] [µM] | Emax [1] [%] | EC50 [1, 9] [µM] | Emax ([2]; CHO-K1) [%] | EC50 ([2]; β-arrestin2 recruitment, S1P1) [µM] | hS1P1 B-arrestin2 pEC50 ([2]; β-arrestin2 recruitment, S1P1) |
| --- | --- | --- | --- | --- | --- | --- | --- | --- | --- | --- | --- | --- | --- | --- | --- |
| CCC1(CC)CC(=O)c2cc(-c3nc(-c4ccc5[nH]ncc5c4)no3)ccc2O1 [Compound 152, 6-(3-(1H-indazol-5-yl)-1,2,4-oxadiazol-5-yl)-2,2-diethyl-chroman-4-one] | > 75 | > 0.316 | > 75 | < 10 | < 50 | > 10 | < 50 | > 10 | < 50 | > 10 |  |  |  |  |  |
| CC(C)n1nnc2cc(-c3nc4c(o3)Cc3ccccc3-4)ccc21 [Compound 219, 5-{8H-indeno[1,2-d][1,3]oxazol-2-yl}-1-(propan-2-yl)-1H-1,2,3-benzotriazole] | < 75 | < 0.316 | > 75 | < 10 | < 50 | < 10 | < 50 | > 10 | < 50 | > 10 |  |  |  |  |  |
| CCC1(CC)CC(=O)c2cc(-c3nc(-c4ccccc4Cl)no3)ccc2O1 [Compound 221, 6-(3-(2-chlorophenyl)-1,2,4-oxadiazol-5-yl)-2,2-diethylchroman-4-one] | > 75 | < 0.316 | > 75 | < 10 | < 50 | > 10 | < 50 | < 10 | < 50 | < 10 |  |  |  |  |  |
| C=CCNc1ccc(-c2nc(-c3cn[nH]c3)no2)cc1C#N [Compound 252, 5-(3-(1H-pyrazol-4-yl)-1,2,4-oxadiazol-5-yl)-2-(allyl-amino)benzonitrile] | > 75 |  | > 75 |  | < 50 | < 10 | < 50 | < 10 | > 50 | < 10 |  |  |  |  |  |
| CCC1(CC)CC(=O)c2cc(-c3nc(-c4ccnc(O)c4)no3)ccc2O1 [Compound 263, 2,2-diethyl-6-[3-(2-hydroxy-4-pyridyl)-1,2,4-oxadiazol-5-yl]chroman-4-one] | > 75 | < 0.316 | > 75 | < 10 | < 50 | > 10 | < 50 | > 10 | < 50 | > 10 |  |  |  |  |  |
| C=CCNc1ccc(-c2nc(-c3ccc4sc(N)nc4c3)no2)cc1C#N [Compound 267, 2-(allylamino)-5-(3-(2-aminobenzo[d]thiazol-5-yl)-1,2,4-oxadiazol-5-yl)benzonitrile] | < 75 | < 0.316 | < 75 | < 10 | < 50 | > 10 | < 50 | > 10 | < 50 | > 10 |  |  |  |  |  |
| COc1cnccc1-c1nc(-c2ccc3c(ccn3C(C)C)c2)no1 [Compound 391, 3-(1-isopropyl-1H-indol-5-yl)-5-(3-methoxypyridin-4-yl)-1,2,4-oxadiazole] |  |  |  |  | < 50 | < 10 | > 50 | < 10 | < 50 | < 10 | > 75 | < 0.316 | > 75 | < 10 |  |
| COc1ccccc1-c1nc(-c2ccc3c(ccn3C(C)C)c2)no1 [Compound 398, 3-(1-isopropyl-1H-indol-5-yl)-5-(2-methoxyphenyl)-1,2,4-oxadiazole] |  |  |  |  | < 50 | > 10 | < 50 | > 10 | < 50 | > 10 | > 75 | < 0.316 | > 75 | < 10 |  |
| COc1ccccc1-c1nnc(-c2ccc3c(c2)oc(=O)n3C)o1 [Compound 406, 6-[5-(2-methoxy-phenyl)-1,3,4-oxadiazol-2-yl]-3-methyl-2,3-dihydro-1,3-benzoxazol-2-one] |  |  |  |  | < 50 | > 10 | < 50 | > 10 | < 50 | > 10 | > 75 | < 0.316 | > 75 | < 10 |  |
| Cc1ccncc1-c1noc(-c2ccc3c(c2)nnn3C2CCC2)n1 [Compound 417, 1-cyclobutyl-5-[3-(4-methylpyridin-3-yl)-1,2,4-oxadiazol-5-yl]-1H-1,2,3-benzotriazole] |  |  |  |  | < 50 | < 10 | < 50 | > 10 | < 50 | > 10 | > 75 | < 0.316 | > 75 | < 10 |  |
| CC(C)Nc1ccc(-c2nc(-c3ccc4oc(=O)[nH]c4c3)no2)cc1C#N [Compound 422, 2-(isopropylamino)-5-(3-(2-oxo-2,3-dihydrobenzo[d]oxazol-5-yl)-1,2,4-oxadiazol-5-yl)benzonitrile] |  |  |  |  | < 50 | < 10 | < 50 | < 10 |  |  | > 75 | < 0.316 | > 75 | < 10 |  |
| CCC1(CC)CC(=O)c2cc(-c3nc(-c4ccc5[nH]c(=O)oc5c4)no3)ccc2O1 [Compound 445, 6-(5-(2,2-diethyl-4-oxochroman-6-yl)-1,2,4-oxadiazol-3-yl)benzo[d]oxazol-2(3H)-one] |  |  |  |  | < 50 | < 10 | < 50 | > 10 |  |  | > 75 | < 0.316 | > 75 | < 10 |  |
| CC(C)Nc1ccc(-c2nc(-c3ccc4c(c3)NC(=O)C4)no2)cc1C#N [Compound 496, 2-(isopropylamino)-5-(3-(2-oxoindolin-6-yl)-1,2,4-oxadiazol-5-yl)benzonitrile] |  |  |  |  | < 50 | > 10 | < 50 | > 10 |  |  | > 75 | < 0.316 | > 75 | < 10 |  |
| CCC1(CC)CC(=O)c2cc(-c3nc(-c4ncccn4)no3)ccc2O1 [Compound 640, 2,2-diethyl-6-(3-(pyrimidin-2-yl)-1,2,4-oxadiazol-5-yl)chroman-4-one] |  |  |  |  |  |  |  |  |  |  | > 75 | > 0.316 | < 75 | > 10 |  |
| CC(C)(CO)n1nnc2cc(-c3noc(-c4ccc5nc[nH]c5c4)n3)ccc21 [Compound 642, 2-(5-(5-(1H-benzo[d]imidazol-6-yl)-1,2,4-oxadiazol-3-yl)-1H-benzo[d][1,2,3]triazol-1-yl)-2-methylpropan-1-ol] |  |  |  |  |  |  |  |  |  |  | < 75 | > 0.316 | < 75 |  |  |
| O=C1CNc2ccc(-c3nc(-c4cn[nH]c4)no3)cc2N1 [Compound 645, 7-[3-(1H-pyrazol-4-yl)-1,2,4-oxadiazol-5-yl]-1,2,3,4-tetrahydro-quinoxalin-2-one] |  |  |  |  |  |  |  |  |  |  | > 75 | > 0.316 | < 75 | > 10 |  |
| COc1ccc(-c2noc(-c3ccc4c(c3)nnn4CC(C)(C)O)n2)c(C)c1 [Compound 647, 1-{5-[3-(4-methoxy-2-methylphenyl)-1,2,4-oxadiazol-5-yl]-1H-1,2,3-benzotriazol-1-yl}-2-methylpropan-2-ol] |  |  |  |  |  |  |  |  |  |  |  | < 0.316 |  |  | >5 |

From patent US20230114241A1, “METHODS OF TREATING EPILEPSY USING THE SAME” (Trevena, Inc., priority 2019, published 2023)
